Tested on: T315I Bcr-Abl BaF3 cells
Test: Cell proliferation (Resazurin) of T315I Bcr-Abl transduced BaF3 cells
Format: cell-based
Details: two day treatment, without IL-3

CC(C)n1nc(-c2ccc(NC(=O)Nc3cccc(C(F)(F)F)c3)cc2)c2c(N)ncnc21 [AD57, 1-(4-(4-amino-1-isopropyl-1H-pyrazolo[3,4-d]pyrimidin-3-yl)phenyl)-3-(3-(trifluoromethyl)phenyl)urea]
inhibition of growth of T315I Bcr-Abl BaF3 cells: equally inhibits the growth

— US8697709B2, “Fused ring heteroaryl kinase inhibitors” (The Regents of the University of California, priority 2008, dated 2014)
